We go through three compounds from patent publication US8299038B2, “Methods and compositions for treating hepatitis C virus” (Idenix Pharmaceuticals, Inc., priority 2000, dated 2012).

Series [1] relates to HCV. The note with it: monotherapy, cited from earlier work.
Series [2] deals with BFU-E (human bone marrow cells). The experiment in a line: Human bone marrow toxicity BFU-E clonogenic assay. The note with it: read-out: IC50 BFU-E, colony formation after 14 to 18 days.
Protocol: (§1) The culture assays for CFU-GM and BFU-E were performed using a bilayer soft agar or methylcellulose method. Drugs were diluted in tissue culture medium and filtered. After 14 to 18 days at 37° C. in a humidified atmosphere of 5% CO2 in air, colonies of greater than 50 cells were counted using an inverted microscope.
Series [3] deals with CFU-GM (human bone marrow cells). Description: Human bone marrow toxicity CFU-GM clonogenic assay. The note with it: read-out: IC50 CFU-GM, colony formation after 14 to 18 days.
Protocol: as §1
Series [4] is described as follows: Bioavailability assay in Cynomolgus monkeys. The class given is in vivo, cynomolgus monkey. To be noted: for Norm AUC: individual monkeys, AUC normalised to dose in mg; for Mean Norm AUC: mean of 3 monkeys. On the procedure: Within 1 week prior to the study initiation, the cynomolgus monkey was surgically implanted with a chronic venous catheter and subcutaneous venous access port (VAP) to facilitate blood collection and underwent a physical examination including hematology and serum chemistry evaluations and the body weight was recorded. […] Each dosing syringe was weighed before dosing to gravimetrically determine the quantity of formulation administered. Urine samples were collected via pan catch at the designated intervals (approximately 18-0 hours pre-dose, 0-4, 4-8 and 8-12 hours post-dosage) and processed.

Each structure is given as a SMILES string. Values joined by “and” are separate entries in the source; they are usually repeats but may differ in a detail not shown here. Identical values can stand only once. Where only a bound is given, the exact number is not on record here.

`NC(=O)c1ncn([C@@H]2O[C@H](CO)[C@@H](O)[C@H]2O)n1` [ribavirin, 1-β-D-ribofuranosyl-1-1,2,4-triazole-3-carboxamide]: in series [1] (HCV patients), the “effect on serum levels of HCV-RNA” value is given as “does not lower serum levels of HCV-RNA”. Besides, in series [1], the “patients in whom serum amino transferase levels are reduced to normal” value was 40%.
With `C[C@@]1(O)[C@H](O)[C@@H](CO)O[C@H]1n1cnc2c(N)ncnc21` [β-D-2′-CH3-riboA, 2′-C-methylriboadenine], the IC50 in series [2] and in series [3] was greater than 100 µM in each case.
Turning to `C[C@@]1(O)[C@H](O)[C@@H](CO)O[C@H]1n1cnc2c(=O)[nH]c(N)nc21` [β-D-2′-CH3-riboG], the CL in series [4] (IV 10 mg/kg) was 21.3 ± 8 mL/min/kg. The Cmax in series [4] (IV 10 mg/kg) is listed as 6945.6 ± 1886.0 ng/mL; in series [4] (PO 10 mg/kg), 217.7 ± 132.1 ng/mL. For the same compound, the results for the T1/2 in series [4] (IV 10 mg/kg) and in series [4] (PO 10 mg/kg) were 7.9 ± 5.4 h and 10.3 ± 4.1 h, respectively. For the same compound, the figures for the time to peak (Tmax) in series [4] (IV 10 mg/kg) and in series [4] (PO 10 mg/kg) were 0.25 ± 0.00 h and 2.00 ± 1.00 h, respectively. This compound returned a Vss in series [4] (IV 10 mg/kg) of 2.09 ± 0.54 L/kg. Also, the AUC in series [4] (IV 10 mg/kg, mean ± spread) is 8758.0 ± 4212.9 ng·h/mL; in series [4] (IV bolus 10 mg/kg, individual monkeys 1-3, 10 mg/kg), 6079 ng·h/mL and 13614 ng·h/mL and 6581 ng·h/mL; in series [4] (PO 10 mg/kg, mean ± spread), 1166.0 ± 589.6 ng·h/mL; in series [4] (PO gavage 10 mg/kg, individual monkeys 1-3, 10 mg/kg) it was 758 ng·h/mL and 898 ng·h/mL and 1842 ng·h/mL. For the same compound, the “Norm AUC” value is 293.4 ng·h/mL/mg and 293.2 ng·h/mL/mg and 268.3 ng·h/mL/mg in series [4] (IV); 26.1 ng·h/mL/mg and 29.0 ng·h/mL/mg and 61.3 ng·h/mL/mg in series [4] (PO). For the same compound, the “Mean Norm AUC” value in series [4] (IV) was determined as 284.9 ng·h/mL/mg; in series [4] (PO) it was 38.8 ng·h/mL/mg. For the same compound, the “F (oral bioavailability)” value in series [4] (Table 2, PO vs IV mean norm AUC) is listed as 13.6%. Also, the F in series [4] (Table 3, 10 mg/kg PO vs IV) worked out at 13.8%. The IC50 in series [2] is greater than 100 µM; in series [3] it was greater than 10 µM.
